Measurements taken from patent publication US20100166737A1, “P38Alpha as a Therapeutic Target in Bladder Carcinoma” (INSTITUT CURIE, priority 2007, published 2010).

Key:
[1] = tested on: FGFR3-S249C-expressing cells (S249C1.2); experiment: Soft agar assay of FGFR3-S249C-expressing NIH-3T3 cells; type: cell-based; details: 21 days, colonies greater than 50 μm; FIG. 1D
Description: (§1) For NIH-3T3, 30,000 transfected cells were added, in triplicate, to each well of a 12-well plate containing DMEM supplemented with 10% NCS and solidified with agar. For MGH-U3, 20,000 non-transfected or siRNA-transfected cells were added, to triplicate wells of 12-well plates containing MEM supplemented with 10% FCS and agar. When necessary, both cell types were cultured in the presence or absence of different inhibitors in agar and in culture medium. The same amount of inhibitor was added to the culture medium weekly.
(§2) The plates were incubated for 21 or 14 days for NIH-3T3 and MGH-U3 cells respectively, and colonies with diameters greater than 50 μm were then scored as positive, using a phase-contrast microscope equipped with a measuring grid.

MGH-U3 cells = experiment: Soft agar assay, anchorage-independent growth of MGH-U3 cells; type: cell-based, human; details: 14 days; FIG. 2C
Description: as §1, §2

NIH-3T3 control cells = experiment: Morphology analysis of NIH-3T3 control cells; type: cell-based; details: data not shown
Description: (§3) NIH-3T3 cells were cultured 48 h in presence of different inhibitors, SB203580 and SU5402 (Calbiochem, Merck Eurolab, Fontenay Sous Bois, France), and pictures were taken using a phase-contrast microscope.

[2] = tested on: NIH-3T3 cell line transfected by mutated FGFR3-S249C; details: AACR abstract April 2005; cited from earlier work
[3] = tested on: control mice basal epidermal cells; experiment: BrdU labelling, basal epidermal cell proliferation in control littermate mice; type: in vivo; details: 100 μM SB203580 on snout daily during 2 weeks, FIG. 3D
Description: (§4) Transgenic mice (K5-FGFR3-S249C) expressing mutated receptor FGFR3b— S249C in basal cells of the epidermis were established previously (Logi& et al 2005, Hum. Mol. Genet. 14, 1153-1160). 40 μl of 100 μM SU5402 or of 100 μM SB203580 or of vehicule (acetone) were applied daily during 2 weeks on snout of 3 to 4 months old transgenic mice who had developed epidermal tumours on snout or of control littermates mice. Two hours prior sacrifice mice were injected (i.p), with 0.25 mg/g body weight Brdu (Sigma, Saint-Quentin Falavier, France). Brdu immunohistochemistry was performed on parafine embed snout tissue with BrdU in situ detection kit (BD Pharmingen, San Diego, Calif., USA) according to the manufacturer's instructions. The number of BrdU-labeled cells among 500 cells from basal epidermis layer was determined for each mouse. Total snout cells lysate (75 μg) were analyzed as described above using antibodies against p38 and phospho-p38 (Pp38).

[4] = tested on: FGFR3-S249C-expressing NIH-3T3 cells (clone S249C1.2); experiment: Morphology analysis of FGFR3-S249C-expressing NIH-3T3 cells; type: cell-based; details: 30 μM, 48 h; FIG. 1C
Description: as §3

[5] = tested on: transgenic mice tumor cell proliferation; experiment: BrdU labelling, snout tumour cell proliferation in K5-FGFR3-S249C transgenic mice; type: in vivo; details: 100 μM SB203580 on snout daily during 2 weeks; FIG. 3D
Description: as §4

MGH-U3 xenograft = MGH-U3 xenograft growth in athymic nude mice; type: in vivo; details: intratumoral, daily, 100 μl of 20 μM, up to 25 days; FIG. 2D
Description: Ten six-week-old female Swiss nu/nu mice were raised in the animal facilities of the Curie Institute in specified pathogen-free conditions. Their care and housing were in accordance with the institutional guidelines of the French National Ethics Committee (Ministere de l'Agriculture et de la Forêt, Direction de la Santë et de la Protection Animate, Paris, France) and were supervised by authorised investigators. Each mouse was injected subcutaneously in each flank (dorsal region) with 4×10^6 cells/site. When tumours reached 50 mm^3 (+/−10), mice were randomly separated into two group of 5 mice. 100 μl of 20 μM SB203580 or equal volume of PBS were administrated daily in tumours. Tumour formation was monitored for up to 25 days and the size of tumours was measured with Vernier calipers: two perpendicular diameters were used to estimate tumour volumes by the formule ab^2/2, where a is the largest and b the smallest diameter.

[6] = tested on: NIH-3T3 cell line transfected by mutated FGFR3-S249C; details: AACR abstract April 2005; cited from earlier work; remark: listed apart in the source
[7] = tested on: p38 phosphorylation in FGFR3-S249C expressing NIH-3T3 clones; experiment: Immunoblot of p38 phosphorylation in FGFR3-S249C expressing NIH-3T3 clones; type: cell-based; details: 30 μM SU5402, 24 hours; clones S249C1.1 and S249C1.2; FIG. 1B
Description: (§5) Transfected NIH-3T3 cells were washed once with PBS and serum-starved for 24 h. Where required, cells were stimulated for 5 min with 20 ng/ml FGF1 in the presence of 50 μg/ml heparin at 37° C. They were then lysed in lysis buffer (50 mM Tris-HCl (pH 7.4), 150 mM NaCl, 1% NP-40, 0.25% sodium deoxycholate, 1 mM EDTA, 1 mM Na3VO4, 5 mM NaF, 1 μ/ml aprotinin, 1 μg/ml leupeptin and 1 μg/ml pepstatin) and the lysates were clarified by centrifugation. The protein concentrations of the supernatants were determined with the Biorad Bradford Protein Assay Kit (BioRad, Ivry sur Seine, France). Proteins from total cell lysates (75 μg protein) were resolved by SDS-PAGE on 10% polyacrylamide gels, electrotransferred to Immobilon-P membrane in 25 mM Tris, pH 8.3, 200 mM glycine, 10% ethanol and analyzed using antibodies against p38 (#9212), Aid (#9272), p42/p44 (#9102) and the phosphorylated forms of these proteins (phospho AKT (Thr308) #9275; phospho p42/p44 (thr202/tyr204) # 9101; phospho p38 (thr180/tyr182) (cell signaling Technology, Ozyme, Montigny le Bretonneux, France)

[8] = tested on: p38 phosphorylation in transgenic mice snout; experiment: Immunoblot of p38 phosphorylation in snout of K5-FGFR3-S249C transgenic mice; type: in vivo; details: 100 μM SU5402 on snout daily during 2 weeks; FIG. 3C
Description: as §4

[9] = tested on: p38 phosphorylation in MGH-U3 cells; experiment: Immunoblot of p38 phosphorylation in MGH-U3 cells; type: cell-based, human; details: 30 μM SU5402, 24 hours; FIG. 2A
Description: as §5
MGH-U3 total cell lysates (75 μg) were analyzed similarly using antibodies against p38, phospho-p38 and Akt.

Compound	ability to form colonies in a soft agar assay [1]	colonies on soft agar relative to control cells (MGH-U3 cells)	effect on the control cell phenotype (NIH-3T3 control cells)	abilities to form colonies in soft agar [2]	basal epidermal cells proliferation (BrdU labelling) [3]	transformed phenotype (morphology) [4]	tumor cell proliferation (BrdU labelling) [5]	MGH-U3 xenograft growth (MGH-U3 xenograft)	transformed phenotype of the cells [6]	p38 phosphorylation [7]	p38 phosphorylation [8]	p38 phosphorylation [9]
C[S+]([O-])c1ccc(-c2nc(-c3ccncc3)c(-c3ccc(F)cc3)[nH]2)cc1 (stereo not drawn) [SB203580]	inhibited	one third	no effect	inhibits	no effect	reverted	significant decreased	significantly reduced	inhibits			
Cc1c[nH]c(/C=C2\C(=O)Nc3ccccc32)c1CCC(=O)O [SU5402]	inhibited		no effect			reverted				inhibited	decreased	suppressed
